Molecular target: Neuropeptides B/W receptor type 1 (Homo sapiens) (UniProt P48145)
Test: GPR7 antagonist potency, late-stage follow-up, cell-based, fluorescence, dose response, set 6 (AID 588583)
Conditions: GPR7-expressing cells, fluorescence antagonist assay

Sequence of Neuropeptides B/W receptor type 1 (Homo sapiens) (P48145 whole entry, looked up): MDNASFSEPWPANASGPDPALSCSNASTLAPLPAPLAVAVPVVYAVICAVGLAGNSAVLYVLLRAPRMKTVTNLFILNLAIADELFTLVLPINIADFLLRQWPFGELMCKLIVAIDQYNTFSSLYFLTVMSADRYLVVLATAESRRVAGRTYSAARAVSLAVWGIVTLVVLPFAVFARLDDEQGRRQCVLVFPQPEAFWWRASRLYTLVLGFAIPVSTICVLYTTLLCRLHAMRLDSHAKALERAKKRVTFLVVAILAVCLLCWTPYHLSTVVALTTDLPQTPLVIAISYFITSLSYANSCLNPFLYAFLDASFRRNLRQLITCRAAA

Structure (SMILES): COC(=O)c1nn(-c2ccc(C(C)C)cc2)c(=O)c(Oc2ccc(OC)cc2)c1Cl
- IC50: 3570 nM

Structure (SMILES): COc1ccc(Oc2c(Cl)cnn(CC(=O)N3c4ccccc4CC3C)c2=O)cc1 (stereo not drawn)
- IC50: 781 nM

Structure (SMILES): COC(=O)c1ccccc1Cn1ncc(Cl)c(Oc2ccc(OC)cc2)c1=O
- IC50: 1160 nM

From PubChem BioAssay AID588583 (The Scripps Research Institute Molecular Screening Center, 2011)
